Experimental data from ChEMBL document CHEMBL3638691, “Quinoline derivatives and MELK inhibitors containing the same” (2015).
Values joined by “and” are separate entries in the source; they are usually repeats but may differ in a detail not shown here. Identical values can stand only once.

Target: Maternal embryonic leucine zipper kinase (Homo sapiens, UniProt Q14680)
Assay: Kinase Assay: MELK activity was determined in the presence or absence of compounds using fluorescein isothiocyanate-labeled (FITC-labeled) histone H3 peptide as a substrate. The extent of FITC-labeled histone H3 peptide phosphorylation was measured by immobilized metal ion affinity-based fluorescence polarization (IMAP) technology (Sportsman J R, et al., Assay Drug Dev. Technol. 2: 205-14, 2004) using IMAP FP Progressive Binding System (Molecular Devices Corporation). Test compounds were dissolved in DMSO at 12.5 mM and then serially diluted as the DMSO concentration in the assays to be 1%. The serially diluted compounds, 0.8 ng/micro-L PBK (Carna Biosciences) and 100 nM FITC-labeled histone H3 peptide were reacted in a reaction buffer (20 mM HEPES, 0.01% Tween-20, 0.3 mM MgCl2, 2 mM dithiothreitol, 50 micro-M ATP, pH 7.4) at room temperature for 1 hour. The reaction was stopped by the addition of three fold assay volume of progressive binding solution. Following 0.5 hour incubation at room temperature.

Sequence of Maternal embryonic leucine zipper kinase (Q14680 whole entry): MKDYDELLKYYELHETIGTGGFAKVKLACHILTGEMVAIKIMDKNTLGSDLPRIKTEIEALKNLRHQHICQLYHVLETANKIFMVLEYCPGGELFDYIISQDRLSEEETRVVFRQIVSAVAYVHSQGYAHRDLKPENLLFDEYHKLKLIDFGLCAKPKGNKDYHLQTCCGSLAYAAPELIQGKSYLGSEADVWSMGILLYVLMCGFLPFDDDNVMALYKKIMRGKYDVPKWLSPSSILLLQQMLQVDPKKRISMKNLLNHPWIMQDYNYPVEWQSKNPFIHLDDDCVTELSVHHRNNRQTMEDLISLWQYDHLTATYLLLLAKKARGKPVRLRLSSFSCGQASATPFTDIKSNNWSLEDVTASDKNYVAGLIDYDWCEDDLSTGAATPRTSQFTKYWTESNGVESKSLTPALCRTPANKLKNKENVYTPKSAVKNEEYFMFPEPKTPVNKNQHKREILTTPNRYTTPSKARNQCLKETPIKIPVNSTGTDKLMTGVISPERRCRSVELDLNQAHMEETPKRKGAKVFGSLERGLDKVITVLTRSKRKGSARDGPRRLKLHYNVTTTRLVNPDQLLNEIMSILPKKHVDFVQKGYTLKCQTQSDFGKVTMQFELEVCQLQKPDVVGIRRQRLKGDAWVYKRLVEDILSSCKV

SMILES	IC50
CS(=O)(=O)c1cnc2ccc(-c3cc(Cl)c(O)c(Cl)c3)cc2c1N[C@H]1CC[C@H](CN2CCCC2)CC1	2.7 nM
CC(=O)c1cnc2cc(C)c(-c3cc(Cl)c(O)c(Cl)c3)cc2c1N[C@H]1CC[C@H](CN2CCC(N)C2)CC1 (stereo partly drawn)	55 nM
COc1cc(-c2ccc3ncc(C(=O)C4CC4)c(Nc4ccc(C5CCCN5C)cn4)c3c2)cc(Cl)c1O (stereo not drawn)	36 nM
CN(C)Cc1ccc(Nc2c([S+](C)[O-])cnc3ccc(-c4cc(Cl)c(O)c(Cl)c4)cc23)cc1 (stereo not drawn)	8.2 nM
CN(C)CC1CCN(c2c(C(=O)C3CC3)cnc3ccc(-c4ccc(OC(F)F)cc4)cc23)CC1	630 nM
Cc1cc(O)c(Cl)cc1-c1ccc2ncc(C(=O)C3CC3)c(N3CCC(CN(C)C)CC3)c2c1	60 nM
O=C(c1cnc2ccc(-c3cc(Cl)c(O)c(Cl)c3)cc2c1Nc1cccc(CCN2CCCC2)c1)C1CCCC1	9.6 nM
CC(N)C(=O)N[C@H]1CC[C@H](Nc2c(C(=O)C(C)(C)C)cnc3ccc(-c4cc(Cl)c(O)c(Cl)c4)cc23)CC1 (stereo partly drawn)	15 nM
O=C(c1cnc2ccc(-c3cc(Cl)c(O)c(Cl)c3)cc2c1N1CCC(CCN2CCCC2)CC1)C1CC1	2.3 nM
O=C(c1cnc2ccc(-c3cc(Cl)c(O)c(Cl)c3)cc2c1N[C@H]1CC[C@H](CN2CCCC2)CC1)C1CC1	1.4 nM
CC(=O)c1cnc2ccc(-c3cc(Cl)c(O)c(Cl)c3)cc2c1N[C@H]1CC[C@H](CN(C)C)CC1	3.1 nM
CN(C)C[C@H]1CC[C@H](Nc2c(C(=O)C3CCCC3)cnc3ccc(-c4cc(Cl)c(O)c(Cl)c4)cc23)CC1	3 nM
CC(=O)c1cnc2ccc(-c3cnc(C#N)nc3)cc2c1Nc1ccc(CN(C)C)cc1	2.2 nM
CN(C)C1CCN(Cc2ccc(Nc3c(C(=O)C4CC4)cnc4ccc(-c5cc(Cl)c(O)c(Cl)c5)cc34)cc2)C1 (stereo not drawn)	7.2 nM and 5.6 nM
CN1CCN(C[C@H]2CC[C@H](Nc3c(C(=O)C4CC4)cnc4ccc(-c5cc(Cl)c(O)c(Cl)c5)cc34)CC2)CC1	4.2 nM and 2.8 nM
CCN(CC)CCO[C@H]1CC[C@H](Nc2c(C(C)=O)cnc3ccc(-c4cc(Cl)c(O)c(Cl)c4)cc23)CC1	2.9 nM
CC(=O)c1cnc2ccc(-c3cc(Cl)c(O)c(Cl)c3)cc2c1N[C@H]1CCC[C@@H](CN2CCN(C)CC2)C1	2.7 nM
CN(C)C1CCN(c2ccc(Nc3c(S(C)(=O)=O)cnc4ccc(-c5cc(Cl)c(O)c(Cl)c5)cc34)cn2)C1 (stereo not drawn)	2.4 nM
CS(=O)(=O)c1cnc2ccc(-c3cc(Cl)c(O)c(Cl)c3)cc2c1Nc1cccc(CCN2CCCC2)c1	2 nM
COc1cc(-c2ccc3ncc(C#N)c(N[C@H]4CC[C@H](N(C)C)CC4)c3c2)cc(Cl)c1O	1.8 nM
O=C(c1cnc2ccc(-c3cc(Cl)c(O)c(Cl)c3)cc2c1Nc1ccc(CN2CCOCC2)cc1)C1CC1	20 nM
CN(C)C[C@H]1CC[C@H](Nc2c(C(=O)C(C)(C)C)cnc3ccc(-c4cc(Cl)c(O)c(Cl)c4)cc23)CC1	22 nM
CN(C)C1CCN(C[C@H]2CC[C@H](Nc3c(C(=O)C4CC4)cnc4ccc(-c5cc(Cl)c(O)c(Cl)c5)cc34)CC2)C1 (stereo partly drawn)	3 nM
CC(=O)c1cnc2ccc(-c3cc(Cl)c(O)c(Cl)c3)cc2c1N[C@H]1CC[C@H](NC(=O)[C@@H](N)C(C)(C)C)CC1	4.2 nM
CC(=O)c1cnc2ccc(-c3cc(Cl)c(O)c(Cl)c3)cc2c1N[C@H]1CC[C@H](CN2CCN(C)CC2)CC1	5.5 nM
CC(=O)c1cnc2ccc(-c3cc(Cl)c(O)c(Cl)c3)cc2c1Nc1ccc(S(=O)(=O)N2CCN(C)CC2)cc1	36 nM
CN(C)CC1CCN(c2c(C(=O)C3CC3)cnc3ccc(-c4ccc5c(c4)CC(=O)N5)cc23)CC1	660 nM
N#Cc1ncc(-c2ccc3ncc(C(=O)C4CC4)c(Nc4ccc(CN)cc4)c3c2)cn1	1.3 nM
